From patent publication US20250230193A1, “CYCLIC COMPOUND HAVING SELECTIVE KRAS INHIBITORY EFFECT ON HRAS AND NRAS” (CHUGAI SEIYAKU KABUSHIKI KAISHA, priority 2022, published 2025)
*1 amine or outer side, *2 acyl side, *3 side chain or, on linkers, in order; H or OH if unused. Where a SMILES comes first, the peptide text is derived from it. Bridges are numbered along the chain shown (N, C = ends). [ ]: non-standard residue; d: D form. The star is where a group is joined. X6 = CC(C)(C)CCN([C@@H](Cc1ccc(C(F)(F)F)cc1)C(=O)[*:2])[*:1]; X21 = O=C([C@H](Cc1ccc(C(F)(F)F)cc1)N(CC1CCCC1)[*:1])[*:2]; hPhe(3-Cl-4-CF3) = N[C@@H](CCc1ccc(C(F)(F)F)c(Cl)c1)C(=O)O; X37 = O=C([C@H](Cc1ccc(C(F)(F)F)cc1)N(CC1CCC1)[*:1])[*:2]; X18 = C=CCCN([C@@H](Cc1ccc(C(F)(F)F)cc1)C(=O)[*:2])[*:1]; X31 = O=C([C@H](Cc1ccc(C(F)(F)F)cc1)N(CC1CC1)[*:1])[*:2]; X11 = C=CCN([C@@H](Cc1ccc(C(F)(F)F)cc1)C(=O)[*:2])[*:1]; NMeGly(cPent) = CN[C@H](C(=O)O)C1CCCC1; NMeD = CN[C@@H](CC(=O)O)C(=O)O; NMeL = CN[C@@H](CC(C)C)C(=O)O; Morpholide = C1CN(*)CCO1; NMeA = CN[C@@H](C)C(=O)O; Ac5c = NC1(C(=O)O)CCCC1; Aze = O=C(O)[C@@H]1CCN1; Sar = CNCC(=O)O

Tests used:
[1] = target: GDP-bound HRAS wild-type protein (Homo sapiens, UniProt P01112); assay: Binding to HRAS by surface plasmon resonance (SPR), Single Cycle Kinetics; conditions: KD ratio HRAS/KRAS, SPR
Chain of GDP-bound HRAS wild-type protein (P01112 whole entry): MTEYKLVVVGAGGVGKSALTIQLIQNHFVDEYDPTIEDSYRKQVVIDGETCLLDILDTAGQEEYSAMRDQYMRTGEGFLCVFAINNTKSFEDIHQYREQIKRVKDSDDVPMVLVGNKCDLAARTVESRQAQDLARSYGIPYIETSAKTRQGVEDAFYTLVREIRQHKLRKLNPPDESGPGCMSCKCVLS

[2] = target: GDP-bound NRAS wild-type protein (Homo sapiens, UniProt P01111); assay: Binding to NRAS by surface plasmon resonance (SPR), Single Cycle Kinetics; conditions: KD ratio NRAS/KRAS, SPR
Chain of GDP-bound NRAS wild-type protein (P01111 whole entry): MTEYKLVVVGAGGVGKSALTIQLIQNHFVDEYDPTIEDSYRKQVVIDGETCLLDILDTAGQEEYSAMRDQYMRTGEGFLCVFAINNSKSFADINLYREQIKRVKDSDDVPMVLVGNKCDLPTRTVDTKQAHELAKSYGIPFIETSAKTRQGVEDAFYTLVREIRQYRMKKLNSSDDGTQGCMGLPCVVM

SMILES	HRAS/KRAS (ratio of KD for GDP-bound HRAS wild-type to KD for KRAS) [1]	NRAS/KRAS (ratio of KD for GDP-bound NRAS wild-type to KD for KRAS) [2]
CC[C@H](C)[C@@H]1NC(=O)[C@H](CC(C)C)N(C)C(=O)C[C@@H](C(=O)N2CCOCC2)N(C)C(=O)[C@H](C2CCCC2)N(C)C(=O)C2(CCCC2)NC(=O)[C@@H]2CCCN2C(=O)[C@H](CCc2ccc(C(F)(F)F)c(Cl)c2)NC(=O)CN(C)C(=O)[C@H](Cc2ccc(C(F)(F)F)cc2)N(CC2CC2)C(=O)[C@@H]2CCN2C(=O)[C@H](C)N(C)C1=O [PP0108] ([NMeL]I[NMeA][Aze][X31][Sar][hPhe(3-Cl-4-CF3)]P[Ac5c][NMeGly(cPent)][NMeD]-Morpholide; lactam N-11)	C (A compound having a KD ratio of 0.1 or more and less than 3 is denoted as C)	C (A compound having a KD ratio of 0.1 or more and less than 3 is denoted as C)
CC[C@H](C)[C@@H]1NC(=O)[C@H](CC(C)C)N(C)C(=O)C[C@@H](C(=O)N2CCOCC2)N(C)C(=O)[C@H](C2CCCC2)N(C)C(=O)C2(CCCC2)NC(=O)[C@@H]2CCCN2C(=O)[C@H](CCc2ccc(C(F)(F)F)c(Cl)c2)NC(=O)CN(C)C(=O)[C@H](Cc2ccc(C(F)(F)F)cc2)N(CC2CCC2)C(=O)[C@@H]2CCN2C(=O)[C@H](C)N(C)C1=O [PP0109] ([NMeL]I[NMeA][Aze][X37][Sar][hPhe(3-Cl-4-CF3)]P[Ac5c][NMeGly(cPent)][NMeD]-Morpholide; lactam N-11)	B (a compound having 3 or more and less than 10 is denoted as B)	C (A compound having a KD ratio of 0.1 or more and less than 3 is denoted as C)
CC[C@H](C)[C@@H]1NC(=O)[C@H](CC(C)C)N(C)C(=O)C[C@@H](C(=O)N2CCOCC2)N(C)C(=O)[C@H](C2CCCC2)N(C)C(=O)C2(CCCC2)NC(=O)[C@@H]2CCCN2C(=O)[C@H](CCc2ccc(C(F)(F)F)c(Cl)c2)NC(=O)CN(C)C(=O)[C@H](Cc2ccc(C(F)(F)F)cc2)N(CC2CCCC2)C(=O)[C@@H]2CCN2C(=O)[C@H](C)N(C)C1=O [PP0110] ([NMeL]I[NMeA][Aze][X21][Sar][hPhe(3-Cl-4-CF3)]P[Ac5c][NMeGly(cPent)][NMeD]-Morpholide; lactam N-11)	B (a compound having 3 or more and less than 10 is denoted as B)	C (A compound having a KD ratio of 0.1 or more and less than 3 is denoted as C)
CC[C@H](C)[C@@H]1NC(=O)[C@H](CC(C)C)N(C)C(=O)C[C@@H](C(=O)N2CCOCC2)N(C)C(=O)[C@H](C2CCCC2)N(C)C(=O)C2(CCCC2)NC(=O)[C@@H]2CCCN2C(=O)[C@H](CCc2ccc(C(F)(F)F)c(Cl)c2)NC(=O)CN(C)C(=O)[C@H](Cc2ccc(C(F)(F)F)cc2)N(CCC(C)(C)C)C(=O)[C@@H]2CCN2C(=O)[C@H](C)N(C)C1=O [PP0113] ([NMeL]I[NMeA][Aze][X6][Sar][hPhe(3-Cl-4-CF3)]P[Ac5c][NMeGly(cPent)][NMeD]-Morpholide; lactam N-11)	B (a compound having 3 or more and less than 10 is denoted as B)	C (A compound having a KD ratio of 0.1 or more and less than 3 is denoted as C)
C=CCN1C(=O)[C@@H]2CCN2C(=O)[C@H](C)N(C)C(=O)[C@H]([C@@H](C)CC)NC(=O)[C@H](CC(C)C)N(C)C(=O)C[C@@H](C(=O)N2CCOCC2)N(C)C(=O)[C@H](C2CCCC2)N(C)C(=O)C2(CCCC2)NC(=O)[C@@H]2CCCN2C(=O)[C@H](CCc2ccc(C(F)(F)F)c(Cl)c2)NC(=O)CN(C)C(=O)[C@@H]1Cc1ccc(C(F)(F)F)cc1 [PP0114] ([NMeL]I[NMeA][Aze][X11][Sar][hPhe(3-Cl-4-CF3)]P[Ac5c][NMeGly(cPent)][NMeD]-Morpholide; lactam N-11)	C (A compound having a KD ratio of 0.1 or more and less than 3 is denoted as C)	C (A compound having a KD ratio of 0.1 or more and less than 3 is denoted as C)
C=CCCN1C(=O)[C@@H]2CCN2C(=O)[C@H](C)N(C)C(=O)[C@H]([C@@H](C)CC)NC(=O)[C@H](CC(C)C)N(C)C(=O)C[C@@H](C(=O)N2CCOCC2)N(C)C(=O)[C@H](C2CCCC2)N(C)C(=O)C2(CCCC2)NC(=O)[C@@H]2CCCN2C(=O)[C@H](CCc2ccc(C(F)(F)F)c(Cl)c2)NC(=O)CN(C)C(=O)[C@@H]1Cc1ccc(C(F)(F)F)cc1 [PP0115] ([NMeL]I[NMeA][Aze][X18][Sar][hPhe(3-Cl-4-CF3)]P[Ac5c][NMeGly(cPent)][NMeD]-Morpholide; lactam N-11)	C (A compound having a KD ratio of 0.1 or more and less than 3 is denoted as C)	C (A compound having a KD ratio of 0.1 or more and less than 3 is denoted as C)
